The source of these data is US12391692B2, “Spiro ring-containing quinazoline compound” (WIGEN BIOMEDICINE TECHNOLOGY (SHANGHAI) CO., LTD., priority 2020, dated 2025).

By IC50 is commonly meant the midpoint of a concentration-inhibition curve. The low end stands for higher potency, the high end for lower potency. By inhibition is commonly meant the drop in the measured response relative to a control, in per cent.

One assay concerns H358 cells. Briefly: Antiproliferative activity against H358 cells (Cell Titer Glow, ultra-low attachment plate). As to conditions: Homo sapiens, NCI-H358, 72 h, three days after addition of compound. Format: cell-based. As to the method:
2500 H358 cells were seeded in a 96-well ultra-low attachment plate (corning, 7007). After one day of growth, a serially diluted compound (a maximum concentration of 5 μM, 5-fold dilution, a total of five doses) was added. Three days after the addition of the compound, Cell Titer Glow (Promega, G9681) was added to evaluate pellet growth, and the IC50 value was calculated.
With `C=CC(=O)N1CC2(CCN(c3nc(N4CC5(CC(O)CN5C)C4)nc4c(OCC(F)(F)F)c(-c5c(C)ccc6[nH]ncc56)c(C5CC5)cc34)CC2)C1` (stereo not drawn) [Compound 121], the IC50 is less than 300 nM.

`C=CC(=O)N1CC2(CCN(c3nc(N4CC5(CC(O)CN5CC)C4)nc4c(OCC(F)(F)F)c(-c5c(C)ccc6[nH]ncc56)c(C5CC5)cc34)CC2)C1` (stereo not drawn) [Compound 122] registered an IC50 of less than 300 nM.

Compound `C=CC(=O)N1CC2(CCN(c3nc(N4CC5(CC(OC)CN5C)C4)nc4c(OCC(F)(F)F)c(-c5c(C)ccc6[nH]ncc56)c(C5CC5)cc34)CC2)C1` (stereo not drawn) [Compound 123] registered an IC50 of less than 300 nM.

Take `C=CC(=O)N1CC2(CCN(c3nc(N4CC5(CC(OC)CN5CC)C4)nc4c(OCC(F)(F)F)c(-c5c(C)ccc6[nH]ncc56)c(C5CC5)cc34)CC2)C1` (stereo not drawn) [Compound 124]: the IC50 is less than 300 nM.

The compound `C=CC(=O)N1CC2(CCN(c3nc(N4CC5(CC(=C)CN5C)C4)nc4c(OCC(F)(F)F)c(-c5c(C)ccc6[nH]ncc56)c(C5CC5)cc34)CC2)C1` [Compound 125] had a half-maximal inhibitory concentration (IC50) of less than 300 nM.

For `C=CC(=O)N1CC2(CCN(c3nc(N4CC5(CC(=C)CN5CC)C4)nc4c(OCC(F)(F)F)c(-c5c(C)ccc6[nH]ncc56)c(C5CC5)cc34)CC2)C1` [Compound 126], the half-inhibitory concentration (IC50) was less than 300 nM.

In turn, `C=CC(=O)N1CC2(CCN(c3nc(N4CC5(C=CCN5C)C4)nc4c(OCC(F)(F)F)c(-c5c(C)ccc6[nH]ncc56)c(C5CC5)cc34)CC2)C1` [Compound 127] gave a 50% inhibitory concentration (IC50) of less than 300 nM.

As to `C=CC(=O)N1CC2(CCN(c3nc(N4CC5(C=CCN5CC)C4)nc4c(OCC(F)(F)F)c(-c5c(C)ccc6[nH]ncc56)c(C5CC5)cc34)CC2)C1` [Compound 128], the IC50 is less than 300 nM.

For `C=CC(=O)N1CC2(CCN(c3nc(N4CC5(C4)CC(F)(F)CN5C)nc4c(OCC(F)(F)F)c(-c5c(C)ccc6[nH]ncc56)c(C5CC5)cc34)CC2)C1` [Compound 129], the half-maximal inhibitory concentration (IC50) is less than 300 nM.

The compound `C=CC(=O)N1CC2(CCN(c3nc(N4CC5(C4)CC(F)(F)CN5CC)nc4c(OCC(F)(F)F)c(-c5c(C)ccc6[nH]ncc56)c(C5CC5)cc34)CC2)C1` [Compound 130] displayed an IC50 of less than 300 nM.

Compound `C=CC(=O)N1CC2(CCN(c3nc(N4CC5(CCCN5C)C4)nc4c(OCC(F)(F)F)c(-c5c(C)ccc6[nH]ncc56)c(C=C)cc34)CC2)C1` [Compound 131] returned a half-maximal inhibitory concentration (IC50) of less than 300 nM.

With `C=CC(=O)N1CC2(CCN(c3nc(N4CC5(CCCN5CC)C4)nc4c(OCC(F)(F)F)c(-c5c(C)ccc6[nH]ncc56)c(C=C)cc34)CC2)C1` [Compound 132], the IC50 is less than 300 nM.

The next assay concerns pERK level in H358 cells. The experiment in a line: pERK and ERK protein content assay in H358 cells (ELISA). The assay is classed as cell-based. As to conditions: Homo sapiens, NCI-H358, pERK/ERK ratio vs DMSO group, compound 1 μM, 24 h, read-out: Inhibition rate (%). Put shortly: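 Percent inhibition of pERK relative to DMSO, from the ELISA pERK/ERK ratio in lysed H358 cells. Compound applied at 1 μM for 24 h after one day of growth.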
As to `C=CC(=O)N1CC2(CCN(c3nc(N4CC5(CC(O)CN5C)C4)nc4c(OCC(F)(F)F)c(-c5c(C)ccc6[nH]ncc56)c(C5CC5)cc34)CC2)C1` (stereo not drawn) [Compound 121], the inhibition at 1 µM was more than 90%.

In the case of `C=CC(=O)N1CC2(CCN(c3nc(N4CC5(CC(O)CN5CC)C4)nc4c(OCC(F)(F)F)c(-c5c(C)ccc6[nH]ncc56)c(C5CC5)cc34)CC2)C1` (stereo not drawn) [Compound 122], the inhibition at 1 µM was more than 90%.

In the case of `C=CC(=O)N1CC2(CCN(c3nc(N4CC5(CC(OC)CN5C)C4)nc4c(OCC(F)(F)F)c(-c5c(C)ccc6[nH]ncc56)c(C5CC5)cc34)CC2)C1` (stereo not drawn) [Compound 123], the inhibition at 1 µM is more than 90%.

As to `C=CC(=O)N1CC2(CCN(c3nc(N4CC5(CC(OC)CN5CC)C4)nc4c(OCC(F)(F)F)c(-c5c(C)ccc6[nH]ncc56)c(C5CC5)cc34)CC2)C1` (stereo not drawn) [Compound 124], the inhibition at 1 µM was more than 90%.

As for `C=CC(=O)N1CC2(CCN(c3nc(N4CC5(CC(=C)CN5C)C4)nc4c(OCC(F)(F)F)c(-c5c(C)ccc6[nH]ncc56)c(C5CC5)cc34)CC2)C1` [Compound 125], the inhibition at 1 µM was more than 90%.

Turning to `C=CC(=O)N1CC2(CCN(c3nc(N4CC5(CC(=C)CN5CC)C4)nc4c(OCC(F)(F)F)c(-c5c(C)ccc6[nH]ncc56)c(C5CC5)cc34)CC2)C1` [Compound 126], the inhibition at 1 µM is more than 90%.

With `C=CC(=O)N1CC2(CCN(c3nc(N4CC5(C=CCN5C)C4)nc4c(OCC(F)(F)F)c(-c5c(C)ccc6[nH]ncc56)c(C5CC5)cc34)CC2)C1` [Compound 127], the inhibition at 1 µM is more than 90%.

Turning to `C=CC(=O)N1CC2(CCN(c3nc(N4CC5(C=CCN5CC)C4)nc4c(OCC(F)(F)F)c(-c5c(C)ccc6[nH]ncc56)c(C5CC5)cc34)CC2)C1` [Compound 128], the inhibition at 1 µM is more than 90%.

Turning to `C=CC(=O)N1CC2(CCN(c3nc(N4CC5(C4)CC(F)(F)CN5C)nc4c(OCC(F)(F)F)c(-c5c(C)ccc6[nH]ncc56)c(C5CC5)cc34)CC2)C1` [Compound 129], the inhibition at 1 µM is more than 90%.

`C=CC(=O)N1CC2(CCN(c3nc(N4CC5(C4)CC(F)(F)CN5CC)nc4c(OCC(F)(F)F)c(-c5c(C)ccc6[nH]ncc56)c(C5CC5)cc34)CC2)C1` [Compound 130]: the inhibition at 1 µM was more than 90%.

As for `C=CC(=O)N1CC2(CCN(c3nc(N4CC5(CCCN5C)C4)nc4c(OCC(F)(F)F)c(-c5c(C)ccc6[nH]ncc56)c(C=C)cc34)CC2)C1` [Compound 131], the inhibition at 1 µM was more than 90%.

As to `C=CC(=O)N1CC2(CCN(c3nc(N4CC5(CCCN5CC)C4)nc4c(OCC(F)(F)F)c(-c5c(C)ccc6[nH]ncc56)c(C=C)cc34)CC2)C1` [Compound 132], the inhibition at 1 µM was more than 90%.
